According to patent US20170275302A1, “INHIBITORS OF THE RENAL OUTER MEDULLARY POTASSIUM CHANNEL” (Merck Sharp & Dohme Corp., priority 2014, published 2017):

Each compound was assayed against T1, hROMK (hKir1.1) (Homo sapiens, UniProt P48048) (assay: Thallium Flux Assay (ROMK channel functional thallium flux assay, FLIPR-Tetra)). Settings: HEK293 cells stably expressing hROMK (hKir1.1); FluxOR thallium flux, 30 min compound incubation; concentration inhibiting 50% of ROMK thallium flux signal.
T1 construct: expressed in transfected cells
T1 sequence (P48048 1-391): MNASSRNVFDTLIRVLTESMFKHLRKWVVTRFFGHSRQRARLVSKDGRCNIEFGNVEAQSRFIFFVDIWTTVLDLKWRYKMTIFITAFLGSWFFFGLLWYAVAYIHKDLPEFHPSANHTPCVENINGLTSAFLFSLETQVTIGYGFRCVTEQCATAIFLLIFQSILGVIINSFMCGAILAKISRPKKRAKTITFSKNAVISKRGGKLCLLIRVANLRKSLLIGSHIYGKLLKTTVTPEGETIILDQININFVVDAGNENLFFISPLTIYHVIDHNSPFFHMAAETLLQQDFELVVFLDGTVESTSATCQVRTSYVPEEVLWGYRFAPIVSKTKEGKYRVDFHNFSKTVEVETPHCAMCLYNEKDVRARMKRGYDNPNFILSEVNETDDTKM
Assay type: cell-based
Protocol: The following Thallium Flux Assay was performed on each of the final product compounds in the Examples.
HEK293 cells stably expressing hROMK (hKir1.1) were grown at 37° C. in a 10% CO2 humidified incubator in complete growth media: Dulbecco's Modified Eagle Medium supplemented with non-essential amino acids, Penicillin/Streptomycin/Glutamine, G418 and FBS. At >80% confluency, the media was aspirated from the flask and rinsed with 10 mL calcium/magnesium-free phosphate buffered saline (PBS). 5 mL of 1× trypsin (prepared in Ca/Mg Free PBS) was added to T-225 flask and the flask was returned to 37° C./CO2 incubator for 2-3 minutes. To dislodge the cells, the side of the flask was gently banged with one's hand. The cells were completely titrated and then the cells were transferred to 25 mL complete media, centrifuged at 1,500 rpm for 6 min followed by resuspension in complete growth media, and the cell concentration was determined. For typical re-seeding, 4E6 cells/T-225 flask will attain >80% confluency in 4 days. Under ideal growth conditions and appropriate tissue culture practices, this cell line is stable for 40-45 passages.
Compound Buffer (per microplate): 20 mL Probenecid/Assay Buffer; 0.3 mM ouabain (10 mM ouabain in water can be stored in amber bottle/aluminum foil at room temperature); Test compound
Stimulant Buffer (prepared at 5× final concentration in 1× FluxOR™Chloride-Free Buffer): 7.5 mM thallium sulfate and 0.75 mM potassium sulfate (to give a final assay concentration of 3 mM Thallium/0.3 mM potassium). Store at 4° C. when not in use. If kept sterile, this solution is good for months.
The ROMK channel functional thallium flux assay was performed in 384 wells, using the FLIPR-Tetra instrument. HEK-hKir1.1 cells were seeded in Poly-D-Lysine microplates and kept in a 37° C.-10% CO2 incubator overnight. On the day of the experiment, the growth media was replaced with the FluxOR™ reagent loading buffer and incubated, protected from light, at ambient temperature (23-25° C.) for 90 min. The loading buffer was replaced with assay buffer±test compound followed by 30 min incubation at ambient temperature, where the thallium/potassium stimulant was added to the microplate.
• 1. Seed HEK-hKir1.1 cells (50 μl at 20,000 cells/well) in 384-well PDL coated Microplates • 2. Allow cells to adhere overnight in humidified 37° C./10% CO2 incubator • 3. Completely remove cell growth media from microplate and replace with 25 μl loading buffer • 4. Incubate Microplate at room temperature, protected form light, for 90 min • 5. Remove loading buffer and replace with 25 μl 1× Assay Buffer±test compound. • 6. Incubate microplate at room temperature, protected from light, for 30 min • 7. At FLIPR-Tetra 384: Add stimulant (thallium/potassium) solution to microplate and monitor fluorescence. Excitation=400 nm, Emission=460 & 580 nm. Collect data for ˜10 min.
The fluorescence intensity of wells containing 3 μM of a standard control ROMK inhibitor of the present invention was used to define the ROMK-sensitive component of thallium flux. Fluorescence in the presence of test compounds was normalized to control values to provide % fluorescence change. IC50 values represent the concentration of compound that inhibited 50% of the ROMK thallium flux signal.

First: Cc1c([C@@H](O)CN2CCC3(CC2)CCN(c2snc4ccccc24)C3=O)ccc2c1COC2=O [Example 82]
Second: Cc1c([C@@H](O)CN2CCC3(CC2)CCN(c2snc4ccncc24)C3=O)ccc2c1COC2=O [Example 85]
The IC50 of the first is 1.8-fold higher: 32.6 nM for the first, 18.5 nM for the second. The second is the more potent here.

Going from `Cc1c([C@@H](O)CN2CCC3(CC2)CCN(c2snc4cccnc24)C3=O)ccc2c1COC2=O` [Example 83] to `Cc1c([C@@H](O)CN2CCC3(CC2)CCN(c2snc4ncccc24)C3=O)ccc2c1COC2=O` [Example 84], the IC50 rises from 33.9 nM to 57.1 nM (1.7-fold). The first is the more potent here.

Compared with `Cc1c([C@@H](O)CN2CCC3(CC2)CCN(c2ccc4cnnn4c2)C3=O)ccc2c1COC2=O` [Example 86], `Cc1c([C@@H](O)CN2CCC3(CC2)CCN(c2ccn4nncc4c2)C3=O)ccc2c1COC2=O` [Example 88, (R)-2-([1,2,3]triazolo[1,5-a]pyridin-5-yl)-8-(2-hydroxy-2-(4-methyl-1-oxo-1,3-dihydroisobenzofuran-5-yl)ethyl)-2,8-diazaspiro[4.5]decan-1-one] is 5.9-fold lower in IC50: 172 nM for the first, 29.2 nM for the second.

First: Cc1c([C@@H](O)CN2CCC3(CC2)CCN(c2ccn4cncc4c2)C3=O)ccc2c1COC2=O [Example 87]
Second: Cc1c([C@@H](O)CN2CCC3(CC2)CC(=O)N(c2ccc4nonc4c2)C3)ccc2c1COC2=O [Example 89, (R)-2-(benzo[c][1,2,5]oxadiazol-5-yl)-8-(2-hydroxy-2-(4-methyl-1-oxo-1,3-dihydroisobenzofuran-5-yl)ethyl)-2,8-diazaspiro[4.5]decan-3-one]
The IC50 of the first is 6.1-fold higher: 260 nM for the first, 42.7 nM for the second. The second is the more potent here.

First: Cc1c([C@@H](O)CN2CCC3(CC2)CCN(c2ccc4nonc4c2)C3)ccc2c1COC2=O [Example 90]
Second: Cc1c([C@@H](O)CN2CCC3(CC2)CCN(c2cnc4nonc4c2)C3)ccc2c1COC2=O [Example 92, (R)-5-(2-(2-([1,2,5]oxadiazolo[3,4-b]pyridin-6-yl)-2,8-diazaspiro[4.5]decan-8-yl)-1-hydroxyethyl)-4-methylisobenzofuran-1(3H)-one]
The IC50 of the first is 3.6-fold higher: 98.3 nM for the first, 27.3 nM for the second.

First: Cc1c([C@@H](O)CN2CCC3(CC2)CCN(c2nccn4ccnc24)C3)ccc2c1COC2=O [Example 91]
Second: Cc1c([C@@H](O)CN2CCC3(CC2)CCN(c2ccc4nonc4n2)C3)ccc2c1COC2=O [Example 95, (R)-5-(2-(2-([1,2,5]oxadiazolo[3,4-b]pyridin-5-yl)-2,8-diazaspiro[4.5]decan-8-yl)-1-hydroxyethyl)-4-methylisobenzofuran-1(3H)-one]
The IC50 of the first is 36-fold higher: 699 nM for the first, 19.2 nM for the second.

Compared with `Cc1c([C@@H](O)CN2CCC3(CC2)CC(=O)N(c2ccc4nonc4n2)C3)ccc2c1COC2=O` [Example 93], `Cc1c([C@@H](O)CN2CCC3(CC2)CC(=O)N(c2cnc4nonc4c2)C3)ccc2c1COC2=O` [Example 94] is 2.5-fold lower in IC50: 274 nM for the first, 109 nM for the second.
